Results as given in ChEMBL document CHEMBL1201862, “PubChem BioAssay data set” (2004).
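Briefly, cells in 96-well plates were exposed to five compound concentrations for 48 h, and endpoints were estimated by linear interpolation. GI50 = concentration required for 50% inhibition of growth.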 The source made the active and inactive calls. No stated cut-off is given here; in the data, active = GI50 up to about 1.1 µM and inactive = higher.

Tests used:
Experiment in all cases: NCI tumour cell line growth inhibition, 48 h
SNB-19 = tested on: SNB-19
OVCAR-5 = tested on: OVCAR-5
U-251 = tested on: U-251
UACC-257 = tested on: UACC-257
SW-620 = tested on: SW-620
K562 = tested on: K562
NCI-H226 = tested on: NCI-H226
HOP-92 = tested on: HOP-92
SK-MEL-2 = tested on: SK-MEL-2
MCF7 = tested on: MCF7
NCI/ADR-RES = tested on: NCI/ADR-RES
HL-60 = tested on: HL-60
NCI-H23 = tested on: NCI-H23
OVCAR-3 = tested on: OVCAR-3
MDA-MB-231 = tested on: MDA-MB-231
SK-OV-3 = tested on: SK-OV-3
MOLT-4 = tested on: MOLT-4
MDA-N = tested on: MDA-N
CAKI-1 = tested on: CAKI-1
CCRF-CEM = tested on: CCRF-CEM
IGROV-1 = tested on: IGROV-1
M14 = tested on: M14
MDA-MB-435 = tested on: MDA-MB-435
DU-145 = tested on: DU-145
SF-268 = tested on: SF-268
OVCAR-4 = tested on: OVCAR-4
A498 = tested on: A498
BT-549 = tested on: BT-549
A549 = tested on: A549
HT-29 = tested on: HT-29
KM12 = tested on: KM12
Hs-578T = tested on: Hs-578T
786-0 = tested on: 786-0
SNB-75 = tested on: SNB-75
RPMI-8226 = tested on: RPMI-8226
UACC-62 = tested on: UACC-62
SF-295 = tested on: SF-295
OVCAR-8 = tested on: OVCAR-8
ACHN = tested on: ACHN
HOP-62 = tested on: HOP-62
NCI-H522 = tested on: NCI-H522
HCT-15 = tested on: HCT-15
SN12C = tested on: SN12C
T47D = tested on: T47D
PC-3 = tested on: PC-3
EKVX = tested on: EKVX
UO-31 = tested on: UO-31
NCI-H460 = tested on: NCI-H460
HCT-116 = tested on: HCT-116
SK-MEL-28 = tested on: SK-MEL-28
Malme-3M = tested on: Malme-3M
SR = tested on: SR
TK-10 = tested on: TK-10
SF-539 = tested on: SF-539
COLO 205 = tested on: COLO 205
RXF 393 = tested on: RXF 393
SK-MEL-5 = tested on: SK-MEL-5
HCC 2998 = tested on: HCC 2998
LOX IMVI = tested on: LOX IMVI

## CC(C)c1cc(C(F)(F)F)nc(NNc2nc(C(C)C)cc(C(F)(F)F)n2)n1
SNB-19
  GI50: 41.7 µM (inactive)
OVCAR-5
  GI50: > 100 µM (inactive)
U-251
  GI50: 45.8 µM (inactive)
UACC-257
  GI50: 15.9 µM (inactive)
SW-620
  GI50: > 100 µM (inactive)
K562
  GI50: > 100 µM (inactive)
NCI-H226
  GI50: > 100 µM (inactive)
HOP-92
  GI50: > 100 µM (inactive)
SK-MEL-2
  GI50: > 100 µM (inactive)
MCF7
  GI50: > 100 µM (inactive)
NCI/ADR-RES
  GI50: > 100 µM (inactive)
HL-60
  GI50: > 100 µM (inactive)
NCI-H23
  GI50: 53.8 µM (inactive)
OVCAR-3
  GI50: 17.1 µM (inactive)
MDA-MB-231
  GI50: 65.3 µM (inactive)
SK-OV-3
  GI50: 33.7 µM (inactive)
MOLT-4
  GI50: > 100 µM (inactive)
MDA-N
  GI50: > 100 µM (inactive)
CAKI-1
  GI50: 64.7 µM (inactive)
CCRF-CEM
  GI50: > 100 µM (inactive)
IGROV-1
  GI50: > 100 µM (inactive)
M14
  GI50: 67.9 µM (inactive)
MDA-MB-435
  GI50: > 100 µM (inactive)
DU-145
  GI50: > 100 µM (inactive)
SF-268
  GI50: > 100 µM (inactive)
OVCAR-4
  GI50: 72.6 µM (inactive)
A498
  GI50: > 100 µM (inactive)
BT-549
  GI50: > 100 µM (inactive)
A549
  GI50: 94 µM (inactive)
HT-29
  GI50: > 100 µM (inactive)
KM12
  GI50: > 100 µM (inactive)
Hs-578T
  GI50: 79.4 µM (inactive)
786-0
  GI50: 28.4 µM (inactive)
SNB-75
  GI50: 24.2 µM (inactive)
RPMI-8226
  GI50: > 100 µM (inactive)
UACC-62
  GI50: 80 µM (inactive)
SF-295
  GI50: 37.1 µM (inactive)
OVCAR-8
  GI50: > 100 µM (inactive)
ACHN
  GI50: 56.8 µM (inactive)
HOP-62
  GI50: 13.2 µM (inactive)
NCI-H522
  GI50: > 100 µM (inactive)
HCT-15
  GI50: > 100 µM
SN12C
  GI50: > 100 µM (inactive)
T47D
  GI50: > 100 µM (inactive)
PC-3
  GI50: > 100 µM (inactive)
EKVX
  GI50: 67.5 µM (inactive)
UO-31
  GI50: > 100 µM (inactive)
NCI-H460
  GI50: 62.8 µM (inactive)
HCT-116
  GI50: 93.8 µM (inactive)
SK-MEL-28
  GI50: > 100 µM (inactive)
Malme-3M
  GI50: 49 µM (inactive)
SR
  GI50: > 100 µM (inactive)
TK-10
  GI50: 19.1 µM (inactive)
SF-539
  GI50: 90.8 µM (inactive)
COLO 205
  GI50: > 100 µM (inactive)
RXF 393
  GI50: 32.4 µM (inactive)
SK-MEL-5
  GI50: > 100 µM (inactive)

## CCN(CC)C1=Nc2ccccc2-n2ccnc2C1
SNB-19
  GI50: > 100 µM (inactive)
OVCAR-5
  GI50: > 100 µM (inactive)
U-251
  GI50: > 100 µM (inactive)
UACC-257
  GI50: > 100 µM (inactive)
SW-620
  GI50: > 100 µM (inactive)
K562
  GI50: > 100 µM (inactive)
NCI-H226
  GI50: > 100 µM (inactive)
HOP-92
  GI50: > 100 µM (inactive)
SK-MEL-2
  GI50: > 100 µM (inactive)
MCF7
  GI50: > 100 µM (inactive)
NCI/ADR-RES
  GI50: > 100 µM (inactive)
HL-60
  GI50: 78.2 µM (inactive)
NCI-H23
  GI50: > 100 µM (inactive)
OVCAR-3
  GI50: > 100 µM (inactive)
MDA-MB-231
  GI50: > 100 µM (inactive)
MOLT-4
  GI50: > 100 µM (inactive)
MDA-N
  GI50: > 100 µM (inactive)
CAKI-1
  GI50: > 100 µM (inactive)
CCRF-CEM
  GI50: > 100 µM (inactive)
IGROV-1
  GI50: > 100 µM (inactive)
M14
  GI50: > 100 µM (inactive)
HCC 2998
  GI50: > 100 µM (inactive)
MDA-MB-435
  GI50: > 100 µM (inactive)
DU-145
  GI50: > 100 µM (inactive)
SF-268
  GI50: > 100 µM (inactive)
OVCAR-4
  GI50: > 100 µM (inactive)
A498
  GI50: > 100 µM (inactive)
BT-549
  GI50: > 100 µM (inactive)
A549
  GI50: > 100 µM (inactive)
HT-29
  GI50: > 100 µM (inactive)
KM12
  GI50: > 100 µM (inactive)
Hs-578T
  GI50: > 100 µM (inactive)
786-0
  GI50: > 100 µM (inactive)
SNB-75
  GI50: 70.5 µM (inactive)
UACC-62
  GI50: > 100 µM (inactive)
SF-295
  GI50: > 100 µM (inactive)
OVCAR-8
  GI50: > 100 µM (inactive)
LOX IMVI
  GI50: > 100 µM (inactive)
ACHN
  GI50: > 100 µM (inactive)
HOP-62
  GI50: > 100 µM (inactive)
NCI-H522
  GI50: > 100 µM (inactive)
HCT-15
  GI50: > 100 µM
SN12C
  GI50: > 100 µM (inactive)
T47D
  GI50: > 100 µM (inactive)
PC-3
  GI50: > 100 µM (inactive)
EKVX
  GI50: > 100 µM (inactive)
UO-31
  GI50: > 100 µM (inactive)
NCI-H460
  GI50: 95.1 µM (inactive)
HCT-116
  GI50: > 100 µM (inactive)
SK-MEL-28
  GI50: > 100 µM (inactive)
SR
  GI50: > 100 µM (inactive)
TK-10
  GI50: > 100 µM (inactive)
SF-539
  GI50: > 100 µM (inactive)
COLO 205
  GI50: > 100 µM (inactive)
RXF 393
  GI50: > 100 µM (inactive)
SK-MEL-5
  GI50: > 100 µM (inactive)
